Six compounds from US7119094B1, “Substituted polycyclic aryl and heteroarpyl pyrazinones useful for selective inhibition of the coagulation cascade” (Warner-Lambert Company, priority 2000, dated 2006) can be followed below.

pIC50: −log10 of the molar value.

The target of assay [1] is T1, recombinant soluble tissue factor and recombinant human factor VIIa (TF-VIIa) (Homo sapiens, UniProt P08709).
T1 construct: conversion of coagulation factor VII to VIIa by Xa; purchased American Diagnostica, Greenwich Conn; host or cells: factor VIIa purchased; soluble TF made in house in E. coli
T1 sequence (P08709 213-466 limits assumed): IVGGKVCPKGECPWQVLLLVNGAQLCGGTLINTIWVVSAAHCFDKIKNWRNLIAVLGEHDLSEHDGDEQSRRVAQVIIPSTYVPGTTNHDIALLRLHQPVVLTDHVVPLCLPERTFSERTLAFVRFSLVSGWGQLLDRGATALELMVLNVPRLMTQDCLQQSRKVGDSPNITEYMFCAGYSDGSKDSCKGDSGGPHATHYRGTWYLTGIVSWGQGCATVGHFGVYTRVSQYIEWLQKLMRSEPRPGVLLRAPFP
T1 sequence (P08709 61-212 limits assumed): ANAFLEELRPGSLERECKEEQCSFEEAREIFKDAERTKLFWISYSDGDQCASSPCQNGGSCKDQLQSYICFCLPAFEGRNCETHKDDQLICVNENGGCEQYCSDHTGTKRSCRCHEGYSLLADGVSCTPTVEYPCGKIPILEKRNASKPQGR
T1 sequence (P13726 33-251 partner limits assumed): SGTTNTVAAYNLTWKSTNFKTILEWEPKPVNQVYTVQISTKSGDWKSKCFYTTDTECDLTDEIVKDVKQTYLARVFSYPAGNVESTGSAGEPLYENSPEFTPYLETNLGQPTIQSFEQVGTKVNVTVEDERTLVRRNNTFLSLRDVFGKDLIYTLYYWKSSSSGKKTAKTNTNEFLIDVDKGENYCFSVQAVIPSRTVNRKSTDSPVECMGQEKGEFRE
Briefly: TF-VIIa Assay. In kind it is biochemical.

In assay [2] the target is T2, Human thrombin (Homo sapiens, UniProt P00734).
For assay [3], the target named is T2, Human thrombin. Kind of assay: biochemical.
Assay [4] addresses T3, Trypsin (type 1× from porcine pancreas) (Sus scrofa, UniProt P00761).
T3 construct: Trypsin (5 ug/ml; type 1× from porcine pancreas); purchased Sigma, St. Louis Mo; host or cells: porcine pancreas
Kind of assay: Trypsin Assay. In kind it is biochemical.

T3 sequence (P00761 9-231): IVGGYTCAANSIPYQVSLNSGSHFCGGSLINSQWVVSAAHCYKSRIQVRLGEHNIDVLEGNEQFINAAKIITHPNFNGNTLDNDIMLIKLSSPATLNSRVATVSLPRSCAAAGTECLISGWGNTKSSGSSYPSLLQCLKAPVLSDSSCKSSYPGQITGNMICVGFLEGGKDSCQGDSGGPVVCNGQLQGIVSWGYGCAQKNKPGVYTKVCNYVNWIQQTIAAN

In the case of `O=C(Cn1c(-c2ccc(-c3ccccc3)cc2)c(Cl)nc(NCc2ccccc2)c1=O)NCCc1cccnc1` [Example E-0110], the “% Inhibition TF-VIIa (100 νM)” value in assay [1] was 0%. Further, in assay [2], the “% Inhibition Thrombin II (100 νM)” value is reported as 0%.
Turning to `N=C(N)c1ccc(C(=O)NCCn2c(-c3cccc(N)c3)c(Cl)nc(NC3CCC3)c2=O)cc1` [Example 136], the pIC50 in assay [3] is less than 4.52.
As to `O=C(Cn1c(-c2ccc(-c3ccccc3)cc2)c(Cl)nc(NCCc2cccnc2)c1=O)NCCc1ccncc1` [Example E-0053], the “% Inhibition TF-VIIa (100 νM)” value in assay [1] came to 0%. For the same compound, the “% Inhibition Thrombin II (100 νM)” value in assay [2] was 0%. For the same compound, in assay [4], the “% Inhibition Trpysin II (100 νM)” value is on record as 0%.
Consider `O=C(Cn1c(-c2ccc(-c3ccccc3)cc2)c(Cl)nc(NCCN2CCOCC2)c1=O)NCCc1ccncc1` [Example E-0055], for which the “% Inhibition TF-VIIa (100 νM)” value in assay [1] is listed as 0%. Moreover, in assay [2], the “% Inhibition Thrombin II (100 νM)” value is 0%. In addition, the “% Inhibition Trpysin II (100 νM)” value in assay [4] is on record as 0%.
Turning to `O=C(Cn1c(-c2ccc(-c3ccccc3)cc2)c(Cl)nc(NCCc2cccc(Cl)c2)c1=O)NCCc1cccnc1` [Example E-0116], in assay [2], the “% Inhibition Thrombin II (100 νM)” value worked out at 0%. For the same compound, the “% Inhibition Trpysin II (100 νM)” value in assay [4] came to 10%.
In the case of `O=C(Cn1c(-c2ccc(-c3ccccc3)cc2)c(Cl)nc(NCc2ccncc2)c1=O)NCCc1ccncc1` [Example E-0056], the “% Inhibition TF-VIIa (100 νM)” value in assay [1] was 0%. For the same compound, the “% Inhibition Thrombin II (100 νM)” value in assay [2] came out at 0%. The “% Inhibition Trpysin II (100 νM)” value in assay [4] is listed as 0%.
